Like-named read-outs stand apart in the source and are kept apart here.
What was measured:
[1] = In vivo pharmacokinetic study in rats, intravenous DUT without or with intravenous KET; set-up: species or system rat; settings: for AUC(0-inf) / half-life / clearance / Vd: male, Sprague-Dawley, rat, iv, 2.5 mg/kg; for AUC(0-inf) / half-life: n = 4; for Vd: n = 4, read-out: Vss
Text: The animal experiment protocols used in the present study were approved by the Pusan National University-Institutional Animal Care and Use Committee for scientific care and ethical procedures (Busan, Korea; approval date: 01/05/2018; approval number: PNU-2018-1848). Male Sprague–Dawley rats (8-week-old; approximately 250 g) were purchased from DBL Co., Ltd. (Incheon, Korea). The rats were acclimatized in a clean room of the Laboratory Animal Center of Pusan National University (Busan, Korea) for 1 week. Then, they were fasted for 12 h prior to the pharmacokinetic experiment and then anesthetized by intramuscular injection of Zoletil at a dose of 20 mg/kg. The femoral vein and artery of the rats were cannulated with a polyethylene tube (BD Medical; Franklin Lakes, NJ, USA). At approximately 4–6 h after the surgery for cannulation, an intravenous dose of DUT (2.5 mg/kg) simultaneously with or without intravenous KET (20 mg/kg) or an oral dose of DUT (5 mg/kg) simultaneously with or without intravenous KET (20 mg/kg) was administered to the rats. Drugs were dissolved in a vehicle consisting of dimethyl sulfoxide, ethanol, and polyethylene glycol 400 at a ratio of 10:5:85 (v/v/v). Blood (approximately 200 μL) was collected in heparin pre-treated microcentrifuge tubes via the femoral artery at 0, 1, 5, 15, 30, 60, 120, 180, 240, 360, 480, and 1200 min after the intravenous dose and at 0, 5, 15, 30, 60, 120, 150, 180, 240, 360, 480, and 1200 min after the oral dose. Following centrifugation of the blood samples at 3000× g at 4 °C for 10 min [19], 100 μL aliquots of plasma were stored at −80 °C.
The half maximal inhibitory concentration (IC50) of KET for the inhibition of the DUT metabolism was determined by the nonlinear regression analysis (GraphPad Prism ver. 5.01; GraphPad Software Inc., San Diego, CA, USA) based on the following Hill equation: y = Min + Max−Min/1 + (x/IC50)^-P where Max and Min are the initial and final y value, respectively, and the exponent P represents the Hill coefficient. Peak plasma concentration (Cmax) and time to reach Cmax (Tmax) were read directly from the observed data. Non-compartmental analysis was conducted to estimate pharmacokinetic parameters such as total area under plasma concentration versus time curve from time zero to time of last sampling (AUClast), total area under plasma concentration versus time curve from time zero to infinity (AUCinf), total plasma clearance (CL), volume of distribution at steady state (Vss), and terminal half-life (t1/2) using the NCA200 and 201 models of WinNonlin ver. 3.1 (Certara USA Inc., Princeton, NJ, USA).

[2] = Stability in rat plasma (QC samples); type: in vitro ADME; settings: n = 5; for Stability (percent drug remaining), Autosampler: 10 °C for 24 h in the autosampler; for Stability (percent drug remaining), Bench-Top: room temperature for 3 h; for Stability (percent drug remaining), Freeze-Thaw: three freezing and thawing cycles; for Stability (percent drug remaining), Long-Term: −20 °C for 30 days
Description: The bioanalytical method proposed herein for the simultaneous determination of DUT and H-DUT was fully validated on the basis of the US FDA guideline. The selectivity of the method was evaluated by comparing chromatograms of the analytes (DUT, H-DUT, and internal standard) in blank rat plasma, blank rat plasma spiked with the analytes, and rat plasma sample obtained from the in vivo rat pharmacokinetic study. Further, the existence of potential interferences at the acquisition windows of the analytes was checked. The linearity of the method was evaluated by adding increasing amounts of DUT and H-DUT to the blank plasma. To construct calibration curves (n = 5), the peak area ratios of DUT or H-DUT to the internal standard (y-axis) were plotted against the nominal concentration ratios of DUT or H-DUT (10–1000 ng/mL) to the internal standard (400 ng/mL) (x-axis), and then, linear regression analysis was performed. The sensitivity was assessed by estimating the LLOQ (signal-to-noise [S/N] ratio > 5). The peaks of the analytes at the LLOQ should be discrete, identifiable, and reproducible with acceptable precision (<20%) and accuracy (within 80–120%). The extraction recovery, matrix effect, dilution integrity, and stability (under bench-top, freeze–thaw, post-preparative, and long-term conditions) in addition to the intra-assay (five different samples) and inter-assay (five different runs) precision and accuracy for each analyte were determined at the LLOQ and three different QC levels as described in the US FDA guidelines and in previous studies.

[3] = plasma, intravenous DUT 2.5 mg/kg with intravenous KET 20 mg/kg
[4] = plasma, intravenous DUT 2.5 mg/kg, DUT alone

## C[C@]12C=CC(=O)N[C@@H]1CC[C@@H]1[C@@H]2CC[C@]2(C)[C@@H](C(=O)Nc3cc(C(F)(F)F)ccc3C(F)(F)F)CC[C@@H]12 [DUT, Dutasteride]
[1]; calculated as CLH/QH, QH 50–80 mL/min/kg
  hepatic extraction ratio: 0.039–0.062
[1]; [3]
  AUC(0-inf): 41800 ng·h/mL
  half-life: 51 ± 5.98 h
  Vd: 4.41 ± 0.373 L/kg
[1]; plasma, intravenous DUT 2.5 mg/kg with intravenous KET 20 mg/kg, n = 4, read-out: CL
  clearance: 1.02 ± 0.16 mL/min/kg
[1]; [4]
  AUC(0-inf): 19100 ng·h/mL
  half-life: 26.8 ± 3.27 h
  Vd: 4.9 ± 0.326 L/kg
[1]; plasma, intravenous DUT 2.5 mg/kg, DUT alone, n = 4, read-out: CL
  clearance: 2.19 ± 0.16 mL/min/kg
[1]; whole blood, intravenous DUT 2.5 mg/kg, calculated as CL/RB, mean value, read-out: total blood clearance (CLB)
  clearance: 3.08 mL/min/kg
[2]; HQC 750 ng/mL
  Stability (percent drug remaining), Autosampler: 102 ± 2%
  Stability (percent drug remaining), Bench-Top: 102 ± 0%
  Stability (percent drug remaining), Freeze-Thaw: 100 ± 0%
  Stability (percent drug remaining), Long-Term: 105 ±1%
[2]; LLOQ 10 ng/mL
  Stability (percent drug remaining), Autosampler: 103 ± 8%
  Stability (percent drug remaining), Bench-Top: 108 ± 1%
  Stability (percent drug remaining), Freeze-Thaw: 99.3 ± 4.7%
  Stability (percent drug remaining), Long-Term: 105 ± 5%
[2]; LQC 30 ng/mL
  Stability (percent drug remaining), Autosampler: 103 ± 1%
  Stability (percent drug remaining), Bench-Top: 105 ± 6%
  Stability (percent drug remaining), Freeze-Thaw: 99.7 ± 2.7%
  Stability (percent drug remaining), Long-Term: 102 ± 4%
[2]; MQC 150 ng/mL
  Stability (percent drug remaining), Autosampler: 104 ± 2%
  Stability (percent drug remaining), Bench-Top: 103 ± 1%
  Stability (percent drug remaining), Freeze-Thaw: 106 ± 2%
  Stability (percent drug remaining), Long-Term: 100 ± 1%

Source: PMC6956158, “In Vitro and In Vivo Assessment of Metabolic Drug Interaction Potential of Dutasteride with Ketoconazole” (Pharmaceutics, 2019)
